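Exposure lasted 48 hours, with cells grown in 96-well plates and compounds tested at five concentrations. TGI is the concentration that stops growth completely.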
Tests used:
Assay in all cases: growth of human tumour cells (NCI), 48 h
EKVX NSCLC = system: EKVX NSCLC
K-562 leukemia = system: K-562 leukemia
SK-OV-3 ovarian = system: SK-OV-3 ovarian
SF-295 CNS = system: SF-295 CNS
IGROV1 ovarian = system: IGROV1 ovarian
SK-MEL-28 melanoma = system: SK-MEL-28 melanoma
SF-268 CNS = system: SF-268 CNS
786-0 renal = system: 786-0 renal
NCI/ADR-RES ovarian = system: NCI/ADR-RES ovarian
KM12 colon = system: KM12 colon
OVCAR-5 ovarian = system: OVCAR-5 ovarian
PC-3 prostate = system: PC-3 prostate

Structure (SMILES)	TGI (EKVX NSCLC) [µM]	TGI (K-562 leukemia) [µM]	TGI (SK-OV-3 ovarian) [µM]	TGI (SF-295 CNS) [µM]	TGI (IGROV1 ovarian) [µM]	TGI (SK-MEL-28 melanoma) [µM]	TGI (SF-268 CNS) [µM]	TGI (786-0 renal) [µM]	TGI (NCI/ADR-RES ovarian) [µM]	TGI (KM12 colon) [µM]	TGI (OVCAR-5 ovarian) [µM]	TGI (PC-3 prostate) [µM]
COc1ccc(/C(Cl)=C(\C=O)c2ccc(F)cc2)cc1	> 100	> 100	77.1	31.6	53.6	> 100	89.3	–	–	–	–	–
CC1(C)OCC2OC3([C@H](O)CCO)OC(C)(C)OC3C2O1 (some centres undefined)	> 100	> 100	–	> 100	> 100	> 100	–	> 100	> 100	> 100	> 100	> 100
CN1N=C2c3ccccc3CC[C@H]2C1c1ccccc1 (some centres undefined)	> 100	> 100	> 100	> 100	> 100	> 100	> 100	> 100	–	> 100	> 100	–
O=[N+]([O-])c1ccc(NC2OCC(O)C(O)C2O)cc1 (centres undefined)	> 100	> 100	> 100	> 100	> 100	> 100	> 100	> 100	–	> 100	–	–
CC1=C(C2=C(C)C(=O)C(=O)c3cc(C)ccc32)c2ccc(C)cc2C(=O)C1=O	0.686	–	3.07	0.373	–	–	–	1.45	–	0.447	0.45	1.04
NC(=O)N/N=C(\Cc1nc2ccc(C(=O)c3ccccc3)cc2[nH]c1=O)C(=O)Nc1ccc(Br)cc1	> 100	> 100	> 100	> 100	> 100	> 100	> 100	> 100	–	> 100	> 100	–
O=c1c2cc(Br)ccc2oc2nc3n(c(=O)c12)CCCS3	> 100	> 100	–	> 100	> 100	> 100	> 100	> 100	> 100	> 100	> 100	> 100
O=C(O)Cc1ccc(N2N=C(c3ccccc3)CC2=O)cc1	> 100	> 100	> 100	> 100	> 100	> 100	> 100	–	> 100	> 100	> 100	> 100
Nc1nc2c(ncn2CCOC(c2ccccc2)P(=O)(O)O)c(=O)[nH]1 (centres undefined)	> 100	–	> 100	> 100	> 100	> 100	> 100	> 100	–	> 100	> 100	–
Cn1c(C(C#N)c2cc(Cl)ncn2)nc2ccccc21 (centres undefined)	> 100	–	> 100	> 100	> 100	> 100	> 100	> 100	> 100	> 100	> 100	–
Cc1cc2c(cc1O)CC[C@@H]1[C@@H]2CC[C@]2(C)[C@@H](O)CC[C@@H]12	–	13.2	34.1	20.3	45.4	27.3	46.8	30.9	27.2	15.7	71.9	37.7
N=c1c2c3n(c4c(=O)n(-c5ccccc5)c(=S)n(c(=O)n1-c1ccccc1)c24)CCCCC3	> 100	–	> 100	> 100	> 100	> 100	> 100	> 100	> 100	> 100	> 100	> 100
COC1=CC(=O)C(O)=C(C[C@@]2(C)[C@@H]3CCC[C@H](COC(=O)CCCCCNC(=O)OC(C)(C)C)[C@@]3(C)CC[C@@H]2C)C1=O	> 10	> 10	> 10	> 10	> 10	> 10	> 10	> 10	–	> 10	> 10	> 10
CC(SC(=S)N1CCCCC1)C(=O)Nc1nnc(-c2ccc(Cl)cc2)o1 (centres undefined)	–	> 100	> 100	–	> 100	> 100	81.1	47.5	> 100	–	> 100	82.9
C[C@@]12CC[C@H]3[C@@H]4CCC(=O)N[C@@]4(C)CC[C@@H]3[C@@]1(C)CC[C@H](OC(=O)Cc1ccc(N(CCCl)CCCl)cc1)C2	31.3	48.7	28.5	31.5	31.3	33	31.9	–	37	44.5	31.5	–
CCCCCCOc1ccc(NC2=C(Cl)C(=O)c3cccnc3C2=O)cc1	3.22	> 10	> 10	> 10	3.62	5.03	5.31	2.8	–	2.97	5.01	> 10
CCSc1nc2sc(C)c(C)c2c(=O)n1-c1ccc(C(=O)O)cc1	> 100	> 100	> 100	> 100	> 100	> 100	> 100	> 100	–	> 100	> 100	–
Cc1cc(Cc2cc(C)c(NC(=O)C(=O)C3C(=O)NC(=S)NC3=O)c(C(C)C)c2)cc(C(C)C)c1NC(=O)C(=O)C1C(=O)NC(=S)NC1=O	> 100	> 100	> 100	> 100	> 100	> 100	> 100	> 100	–	> 100	> 100	–
O=[N+]([O-])c1ccc(Cl)cc1C1ON=C(c2ccccc2)N1C12CC3CC(CC(C3)C1)C2 (centres undefined)	> 100	> 100	> 100	> 100	> 100	> 100	> 100	> 100	> 100	–	> 100	> 100
CN(C)CCNCc1c2ccccc2c(CNCCN(C)C)c2ccccc12	> 100	> 100	42.5	> 100	> 69.4	> 100	> 90.5	–	> 100	> 100	43.5	–
CN(C)C(=O)CC(C(=O)O)c1c[nH]c2ccccc12 (centres undefined)	> 100	> 100	–	> 100	> 100	–	–	> 100	–	> 100	–	–

From PubChem BioAssay (NCI)
